Source: patent US20240072809A1, “ASGPR-BINDING COMPOUNDS FOR THE DEGRADATION OF EXTRACELLULAR PROTEINS” (Avilar Therapeutics, Inc., priority 2020, published 2024)
Where two headings read alike, the source gives them in different places.

Target: ASGPR (Homo sapiens (Human), UniProt P07306)
Experiment: Affinity to ASGPR measured by surface plasmon resonance (SPR)
Type: binding
Conditions: ASGPR ligands, Table 4, read-out: ASGPR_PR Binding KD

ASGPR, sequence (P07306 whole entry): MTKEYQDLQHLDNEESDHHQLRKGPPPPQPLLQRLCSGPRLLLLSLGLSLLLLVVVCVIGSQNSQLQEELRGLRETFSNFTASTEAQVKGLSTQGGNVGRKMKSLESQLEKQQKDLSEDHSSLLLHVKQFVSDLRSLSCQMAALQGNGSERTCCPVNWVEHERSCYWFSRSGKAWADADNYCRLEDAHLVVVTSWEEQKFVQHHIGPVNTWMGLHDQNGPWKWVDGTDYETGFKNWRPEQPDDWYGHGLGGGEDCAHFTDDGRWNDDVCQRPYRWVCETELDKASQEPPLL

`COc1ccnc(N[C@H]2CO[C@H](CO)[C@H](O)[C@@H]2O)n1` [Compound A323] gave a Kd (class symbols) of less than 100 µM.
`OC[C@H]1OC[C@H](Nc2ncc(Cl)c(C(F)(F)F)n2)[C@@H](O)[C@H]1O` [Compound A324] gave a Kd (class symbols) of less than 100 µM.
Compound `COc1nc(N[C@H]2CO[C@H](CO)[C@H](O)[C@@H]2O)nc(OC)n1` [Compound A325] has a Kd (class symbols) of less than 100 µM.
In the case of `COc1nc(C#N)cc(N[C@H]2CO[C@H](CO)[C@H](O)[C@@H]2O)n1` [Compound A326], the Kd (class symbols) is reported as less than 100 µM.
In the case of `COc1nc(Cl)cc(N[C@H]2CO[C@H](CO)[C@H](O)[C@@H]2O)n1` [Compound A327], the Kd (class symbols) is reported as less than 100 µM.
`OC[C@H]1OC[C@H](Nc2cc(Cl)nc(C(F)(F)F)n2)[C@@H](O)[C@H]1O` [Compound A328] gave a Kd (numeric lower bounds) greater than 20 µM.
Compound `COc1nc(Cl)nc(N[C@H]2CO[C@H](CO)[C@H](O)[C@@H]2O)n1` [Compound A330] has a Kd (class symbols) of less than 100 µM.
For `CSc1nc(Cl)cc(N[C@H]2CO[C@H](CO)[C@H](O)[C@@H]2O)n1` [Compound A331, (2R,3R,4R,5S)-5-((6-chloro-2-(methylthio)pyrimidin-4-yl)amino)-2-(hydroxymethyl)tetrahydro-2H-pyran-3,4-diol], the Kd (class symbols) was less than 100 µM.
For `N#Cc1cccc(N[C@H]2CO[C@H](CO)[C@H](O)[C@@H]2O)n1` [Compound A332], the Kd (class symbols) was less than 100 µM.
`COc1cc(N[C@H]2CO[C@H](CO)[C@H](O)[C@@H]2O)nc(C#N)n1` [Compound A333] showed a Kd (numeric lower bounds) greater than 10 µM.
`Cc1cc(C(F)(F)F)nc(N[C@H]2CO[C@H](CO)[C@H](O)[C@@H]2O)n1` [Compound A334] showed a Kd (class symbols) of less than 100 µM.
Compound `OC[C@H]1OC[C@H](Nc2nccc(C(F)F)n2)[C@@H](O)[C@H]1O` [Compound A335] has a Kd (class symbols) of less than 100 µM.
In the case of `CSc1ccnc(N[C@H]2CO[C@H](CO)[C@H](O)[C@@H]2O)n1` [Compound A336], the Kd (class symbols) is reported as less than 100 µM.
Work on `CN1CCN(c2nsc(N[C@H]3CO[C@H](CO)[C@H](O)[C@@H]3O)n2)CC1` [Compound A338, (2R,3R,4R,5S)-2-(hydroxymethyl)-5-((3-(4-methylpiperazin-1-yl)-1,2,4-thiadiazol-5-yl)amino)tetrahydro-2H-pyran-3,4-diol] yielded a Kd (class symbols) of less than 100 µM.
With `CN(C)c1nsc(N[C@H]2CO[C@H](CO)[C@H](O)[C@@H]2O)n1` [Compound A339, (2R,3R,4R,5S)-5-((3-(dimethylamino)-1,2,4-thiadiazol-5-yl)amino)-2-(hydroxymethyl)tetrahydro-2H-pyran-3,4-diol] the Kd (class symbols) was less than 100 µM.
Work on `OC[C@H]1OC[C@H](Nc2nc(N3CCOCC3)ns2)[C@@H](O)[C@H]1O` [Compound A340, (2R,3R,4R,5S)-2-(hydroxymethyl)-5-((3-morpholino-1,2,4-thiadiazol-5-yl)amino)tetrahydro-2H-pyran-3,4-diol] yielded a Kd (class symbols) of less than 100 µM.
Compound `Nc1nsc(N[C@H]2CO[C@H](CO)[C@H](O)[C@@H]2O)n1` [Compound A341, (2R,3R,4R,5S)-5-((3-amino-1,2,4-thiadiazol-5-yl)amino)-2-(hydroxymethyl)tetrahydro-2H-pyran-3,4-diol] has a Kd (class symbols) of less than 100 µM.
In the case of `O=C(N[C@H]1CO[C@H](CO)[C@H](O)[C@@H]1O)c1ccccc1` [Compound A342, N-((3S,4R,5R,6R)-4,5-dihydroxy-6-(hydroxymethyl)tetrahydro-2H-pyran-3-yl)benzamide], the Kd (class symbols) is reported as less than 100 µM.
`O=S(=O)(N[C@H]1CO[C@H](CO)[C@H](O)[C@@H]1O)C(F)(F)F` [Compound A344] was tested, and the Kd (class symbols) was less than 100 µM.
With `O=c1ccn([C@H]2CO[C@H](CO)[C@H](O)[C@@H]2O)cc1` [Compound A345, 1-((3S,4R,5R,6R)-4,5-dihydroxy-6-(hydroxymethyl)tetrahydro-2H-pyran-3-yl)pyridin-4(1H)-one] the Kd (class symbols) was less than 100 µM.
Work on `COc1cc(C#N)nc(N[C@H]2CO[C@H](CO)[C@H](O)[C@@H]2O)n1` [Compound A346, 2-(((3S,4R,5R,6R)-4,5-dihydroxy-6-(hydroxymethyl)tetrahydro-2H-pyran-3-yl)amino)-6-methoxypyrimidine-4-carbonitrile] yielded a Kd (class symbols) of less than 100 µM.
Work on `N#Cc1cc(N[C@H]2CO[C@H](CO)[C@H](O)[C@@H]2O)nc(C#N)n1` [Compound A348, 6-(((3S,4R,5R,6R)-4,5-dihydroxy-6-(hydroxymethyl)tetrahydro-2H-pyran-3-yl)amino)pyrimidine-2,4-dicarbonitrile] yielded a Kd (numeric lower bounds) greater than 20 µM.
Work on `COc1nc(C#N)nc(N[C@H]2CO[C@H](CO)[C@H](O)[C@@H]2O)n1` [Compound A349, 4-(((3S,4R,5R,6R)-4,5-dihydroxy-6-(hydroxymethyl)tetrahydro-2H-pyran-3-yl)amino)-6-methoxy-1,3,5-triazine-2-carbonitrile] yielded a Kd (class symbols) of less than 100 µM.
`COc1cc(N2CCN(C)CC2)nc(N[C@H]2CO[C@H](CO)[C@H](O)[C@@H]2O)n1` [Compound A350, (2R,3R,4R,5S)-2-(hydroxymethyl)-5-((4-methoxy-6-(4-methylpiperazin-1-yl)pyrimidin-2-yl)amino)tetrahydro-2H-pyran-3,4-diol] showed a Kd (numeric lower bounds) greater than 20 µM.
`CSc1cc(N[C@H]2CO[C@H](CO)[C@H](O)[C@@H]2O)nc(C#N)n1` [Compound A351, 4-(((3S,4R,5R,6R)-4,5-dihydroxy-6-(hydroxymethyl)tetrahydro-2H-pyran-3-yl)amino)-6-(methylthio)pyrimidine-2-carbonitrile] gave a Kd (numeric lower bounds) greater than 20 µM.
`CSc1cc(N[C@H]2CO[C@H](CO)[C@H](O)[C@@H]2O)nc(C(N)=O)n1` [Compound A352, 4-(((3S,4R,5R,6R)-4,5-dihydroxy-6-(hydroxymethyl)tetrahydro-2H-pyran-3-yl)amino)-6-(methylthio)pyrimidine-2-carboxamide] was tested, and the Kd (numeric lower bounds) was greater than 20 µM.
With `OC[C@H]1OC[C@H](Nc2nc3ccccc3s2)[C@@H](O)[C@H]1O` [Compound A354, (2R,3R,4R,5S)-5-(benzo[d]thiazol-2-ylamino)-2-(hydroxymethyl)tetrahydro-2H-pyran-3,4-diol] the Kd (class symbols) was less than 100 µM.
`OC[C@H]1OC[C@H](Nc2cccc(C(F)(F)F)c2)[C@@H](O)[C@H]1O` [Compound A355, (2R,3R,4R,5S)-2-(hydroxymethyl)-5-((3-(trifluoromethyl)phenyl)amino) tetrahydro-2H-pyran-3,4-diol] gave a Kd (class symbols) of less than 100 µM.
`OC[C@H]1OC[C@H](Nc2cc(C(F)(F)F)ccn2)[C@@H](O)[C@H]1O` [Compound A356, (2R,3R,4R,5S)-2-(hydroxymethyl)-5-((4-(trifluoromethyl)pyridin-2-yl)amino)tetrahydro-2H-pyran-3,4-diol] showed a Kd (numeric lower bounds) greater than 20 µM.
In the case of `OC[C@H]1OC[C@H](Nc2nc(-c3cccnc3)ns2)[C@@H](O)[C@H]1O` [Compound A358, (2R,3R,4R,5S)-2-(hydroxymethyl)-5-((3-(pyridin-3-yl)-1,2,4-thiadiazol-5-yl)amino)tetrahydro-2H-pyran-3,4-diol], the Kd (class symbols) is reported as less than 100 µM.
In the case of `COc1cc(N[C@H]2CO[C@H](CO)[C@H](O)[C@@H]2O)nc(C(F)(F)F)n1` [Compound A359, (2R,3R,4R,5S)-2-(hydroxymethyl)-5-((6-methoxy-2-(trifluoromethyl)pyrimidin-4-yl)amino)tetrahydro-2H-pyran-3,4-diol], the Kd (class symbols) is reported as less than 100 µM.
`COc1cc(N[C@H]2CO[C@H](CO)[C@H](O)[C@@H]2O)nc(OC)n1` [Compound A363, (2R,3R,4R,5S)-5-((2,6-dimethoxypyrimidin-4-yl)amino)-2-(hydroxymethyl) tetrahydro-2H-pyran-3,4-diol] showed a Kd (class symbols) of less than 100 µM.
In the case of `COc1cc(C#N)cc(N[C@H]2CO[C@H](CO)[C@H](O)[C@@H]2O)n1` [Compound A364, 2-(((3S,4R,5R,6R)-4,5-dihydroxy-6-(hydroxymethyl)tetrahydro-2H-pyran-3-yl)amino)-6-methoxyisonicotinonitrile], the Kd (class symbols) is reported as less than 100 µM.
In the case of `COc1cc(C(N)=O)cc(N[C@H]2CO[C@H](CO)[C@H](O)[C@@H]2O)n1` [Compound A365, 2-(((3S,4R,5R,6R)-4,5-dihydroxy-6-(hydroxymethyl)tetrahydro-2H-pyran-3-yl)amino)-6-methoxyisonicotinamide], the Kd (numeric lower bounds) is reported as greater than 20 µM.
Work on `CCOc1cc(Cl)nc(N[C@H]2CO[C@H](CO)[C@H](O)[C@@H]2O)n1` [Compound A367, (2R,3R,4R,5S)-5-((4-chloro-6-ethoxypyrimidin-2-yl)amino)-2-(hydroxymethyl)tetrahydro-2H-pyran-3,4-diol] yielded a Kd (class symbols) of less than 100 µM.
Work on `CCOc1cc(C#N)nc(N[C@H]2CO[C@H](CO)[C@H](O)[C@@H]2O)n1` [Compound A368, 2-(((3S,4R,5R,6R)-4,5-dihydroxy-6-(hydroxymethyl)tetrahydro-2H-pyran-3-yl)amino)-6-ethoxypyrimidine-4-carbonitrile] yielded a Kd (numeric lower bounds) greater than 20 µM.
`CS(=O)(=O)c1nc(Cl)cc(N[C@H]2CO[C@H](CO)[C@H](O)[C@@H]2O)n1` [Compound A370, (2R,3R,4R,5S)-5-((6-chloro-2-(methylsulfonyl)pyrimidin-4-yl)amino)-2-(hydroxymethyl)tetrahydro-2H-pyran-3,4-diol] was tested, and the Kd (numeric lower bounds) was greater than 10 µM.
Work on `CS(=O)(=O)c1ccnc(N[C@H]2CO[C@H](CO)[C@H](O)[C@@H]2O)n1` [Compound A371, (2R,3R,4R,5S)-2-(hydroxymethyl)-5-((4-(methylsulfonyl)pyrimidin-2-yl)amino)tetrahydro-2H-pyran-3,4-diol] yielded a Kd (class symbols) of less than 100 µM.
For `N#Cc1cnc(N[C@H]2CO[C@H](CO)[C@H](O)[C@@H]2O)s1` [Compound A372, 2-(((3S,4R,5R,6R)-4,5-dihydroxy-6-(hydroxymethyl)tetrahydro-2H-pyran-3-yl)amino)thiazole-5-carbonitrile], the Kd (numeric lower bounds) was greater than 20 µM.
For `N#Cc1nc(N[C@H]2CO[C@H](CO)[C@H](O)[C@@H]2O)c2cccn2n1` [Compound A373, 4-(((3S,4R,5R,6R)-4,5-dihydroxy-6-(hydroxymethyl)tetrahydro-2H-pyran-3-yl)amino)pyrrolo[2,1-f][1,2,4]triazine-2-carbonitrile], the Kd (class symbols) was less than 100 µM.
`COC(=O)c1cc(OC)nc(N[C@H]2CO[C@H](CO)[C@H](O)[C@@H]2O)n1` [Compound A374, methyl 2-(((3S,4R,5R,6R)-4,5-dihydroxy-6-(hydroxymethyl)tetrahydro-2H-pyran-3-yl)amino)-6-methoxypyrimidine-4-carboxylate] showed a Kd (numeric lower bounds) greater than 20 µM.
`CO[C@H]1O[C@H](CO)[C@H](O)[C@H](O)[C@H]1Nc1nccc(C(F)(F)F)n1` [Compound A377] was tested, and the Kd (class symbols) was less than 100 µM.
`CO[C@H]1O[C@H](CO)[C@H](O)[C@H](O)[C@H]1Nc1ncns1` [Compound A378] was tested, and the Kd (class symbols) was less than 100 µM.
Compound `CO[C@H]1O[C@H](CO)[C@H](O)[C@H](O)[C@H]1Nc1nc(Cl)c(C#N)s1` [Compound A379] has a Kd (class symbols) of less than 100 µM.
